# Test results reported in ChEMBL document CHEMBL2069273, “Modulation of cofilin phosphorylation by inhibition of the Lim family kinases” (Bioorg Med Chem Lett, 2012).
# Active and inactive are the calls of the source. No cut-off for these calls is given here.
# How the values were obtained:
# [1] = molecular target: T1, Mitogen-activated protein kinase 14 (Homo sapiens, UniProt Q16539); assay: Inhibition of MAPK p38alpha
# [2] = molecular target: T2, LIM domain kinase 1 (Homo sapiens, UniProt P53667); assay: Inhibition of LIMK1
# Target sequence in this assay (P53667 whole entry, the tested form may be a part): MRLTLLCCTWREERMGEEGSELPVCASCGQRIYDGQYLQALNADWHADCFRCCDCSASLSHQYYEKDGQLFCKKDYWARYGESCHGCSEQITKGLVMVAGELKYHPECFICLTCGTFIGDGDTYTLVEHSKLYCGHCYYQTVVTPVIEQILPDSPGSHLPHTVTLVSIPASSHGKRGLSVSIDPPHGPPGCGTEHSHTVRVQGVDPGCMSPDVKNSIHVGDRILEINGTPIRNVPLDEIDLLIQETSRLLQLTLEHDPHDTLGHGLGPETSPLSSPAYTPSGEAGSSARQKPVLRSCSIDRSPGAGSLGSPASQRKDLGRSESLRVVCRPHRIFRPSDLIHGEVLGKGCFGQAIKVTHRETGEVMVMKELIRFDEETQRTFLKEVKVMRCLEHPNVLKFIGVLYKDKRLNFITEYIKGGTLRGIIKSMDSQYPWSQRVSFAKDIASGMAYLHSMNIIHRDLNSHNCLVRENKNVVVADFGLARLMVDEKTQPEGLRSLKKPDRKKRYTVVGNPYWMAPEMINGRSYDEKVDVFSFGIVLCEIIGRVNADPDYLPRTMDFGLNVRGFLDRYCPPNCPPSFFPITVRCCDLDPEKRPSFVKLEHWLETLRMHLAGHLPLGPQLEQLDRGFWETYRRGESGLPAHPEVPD
# [3] = molecular target: T3, Dual specificity testis-specific protein kinase 2 (Homo sapiens, UniProt Q96S53); assay: Inhibition of TESK2
# Target sequence in this assay (Q96S53 whole entry, the tested form may be a part): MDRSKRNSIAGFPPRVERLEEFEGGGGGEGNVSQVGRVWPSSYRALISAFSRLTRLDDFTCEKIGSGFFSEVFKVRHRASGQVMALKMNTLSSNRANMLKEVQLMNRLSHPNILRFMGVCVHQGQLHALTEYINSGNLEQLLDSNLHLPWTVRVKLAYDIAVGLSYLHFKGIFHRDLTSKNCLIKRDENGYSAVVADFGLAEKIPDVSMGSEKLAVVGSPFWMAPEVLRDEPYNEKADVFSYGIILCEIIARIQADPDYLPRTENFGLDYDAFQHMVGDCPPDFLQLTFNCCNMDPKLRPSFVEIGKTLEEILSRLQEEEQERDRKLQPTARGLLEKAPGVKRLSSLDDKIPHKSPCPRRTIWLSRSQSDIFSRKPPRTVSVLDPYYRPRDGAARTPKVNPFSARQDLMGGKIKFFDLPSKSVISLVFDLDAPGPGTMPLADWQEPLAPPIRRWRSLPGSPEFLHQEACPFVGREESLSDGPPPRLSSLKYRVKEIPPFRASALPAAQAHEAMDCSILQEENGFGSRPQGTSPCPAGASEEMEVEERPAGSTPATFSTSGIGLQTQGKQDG
# [4] = molecular target: T4, LIM domain kinase 2 (Homo sapiens, UniProt P53671); assay: Inhibition of LIMK2
# Target sequence in this assay (P53671 whole entry, the tested form may be a part): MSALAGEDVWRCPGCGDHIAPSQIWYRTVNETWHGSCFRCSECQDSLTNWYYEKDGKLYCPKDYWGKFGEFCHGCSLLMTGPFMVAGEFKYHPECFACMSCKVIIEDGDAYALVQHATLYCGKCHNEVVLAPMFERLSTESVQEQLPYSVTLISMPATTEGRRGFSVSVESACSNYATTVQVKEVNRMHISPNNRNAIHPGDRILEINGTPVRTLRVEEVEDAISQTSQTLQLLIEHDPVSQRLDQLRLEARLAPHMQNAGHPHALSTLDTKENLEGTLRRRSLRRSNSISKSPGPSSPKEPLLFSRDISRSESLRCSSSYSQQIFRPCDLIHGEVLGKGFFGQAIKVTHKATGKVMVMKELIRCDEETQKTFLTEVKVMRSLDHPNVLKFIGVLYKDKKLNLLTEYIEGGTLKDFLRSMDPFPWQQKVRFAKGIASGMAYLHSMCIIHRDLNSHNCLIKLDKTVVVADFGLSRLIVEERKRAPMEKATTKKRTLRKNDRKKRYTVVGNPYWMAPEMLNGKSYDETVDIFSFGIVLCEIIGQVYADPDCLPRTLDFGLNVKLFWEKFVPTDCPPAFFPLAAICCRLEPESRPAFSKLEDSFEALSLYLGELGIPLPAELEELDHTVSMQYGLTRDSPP
# [5] = molecular target: Dual specificity testis-specific protein kinase 1 (Homo sapiens, UniProt Q15569); assay: Inhibition of TESK1
# Chain of Dual specificity testis-specific protein kinase 1 (Q15569 whole entry): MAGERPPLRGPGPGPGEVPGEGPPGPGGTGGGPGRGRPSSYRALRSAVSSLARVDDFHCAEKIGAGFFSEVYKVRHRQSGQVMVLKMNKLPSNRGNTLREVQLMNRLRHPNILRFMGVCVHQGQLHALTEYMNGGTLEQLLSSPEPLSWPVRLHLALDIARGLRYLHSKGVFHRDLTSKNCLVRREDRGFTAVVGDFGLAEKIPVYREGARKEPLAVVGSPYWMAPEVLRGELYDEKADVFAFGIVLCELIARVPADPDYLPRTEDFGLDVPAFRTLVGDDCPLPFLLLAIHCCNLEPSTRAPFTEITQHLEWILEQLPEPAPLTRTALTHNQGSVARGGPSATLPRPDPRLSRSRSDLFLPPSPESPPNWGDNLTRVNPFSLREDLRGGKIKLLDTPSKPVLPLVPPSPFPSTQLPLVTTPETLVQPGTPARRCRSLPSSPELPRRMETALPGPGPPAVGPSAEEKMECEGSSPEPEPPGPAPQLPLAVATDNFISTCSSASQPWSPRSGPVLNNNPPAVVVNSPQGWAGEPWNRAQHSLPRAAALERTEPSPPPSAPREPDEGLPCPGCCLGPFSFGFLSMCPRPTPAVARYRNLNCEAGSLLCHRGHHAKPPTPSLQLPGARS
# [6] = molecular target: T3, Dual specificity testis-specific protein kinase 2; assay: Inhibition of TESK2 at 30 uM
# [7] = molecular target: T5, TGF-beta receptor type-1 (Homo sapiens) (UniProt P36897); assay: Binding affinity to human TGFBR1
# T5 sequence (whole entry): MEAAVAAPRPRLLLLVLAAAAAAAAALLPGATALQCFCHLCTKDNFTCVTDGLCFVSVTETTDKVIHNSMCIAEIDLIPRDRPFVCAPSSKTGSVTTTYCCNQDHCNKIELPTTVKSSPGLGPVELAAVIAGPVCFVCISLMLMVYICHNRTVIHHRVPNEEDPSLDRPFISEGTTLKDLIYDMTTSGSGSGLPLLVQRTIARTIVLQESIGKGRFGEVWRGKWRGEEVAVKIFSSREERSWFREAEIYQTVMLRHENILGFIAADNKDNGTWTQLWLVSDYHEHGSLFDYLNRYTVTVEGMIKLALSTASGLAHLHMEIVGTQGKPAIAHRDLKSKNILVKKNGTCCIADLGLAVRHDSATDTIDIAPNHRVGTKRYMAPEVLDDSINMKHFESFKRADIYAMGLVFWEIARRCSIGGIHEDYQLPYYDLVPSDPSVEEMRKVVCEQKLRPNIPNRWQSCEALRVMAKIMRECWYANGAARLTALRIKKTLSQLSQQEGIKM
# [8] = tested on: HT-1080; assay: Cytotoxicity against human HT1080 cells assessed as inhibition of thymidine incorporation; type: cell-based
# [9] = molecular target: Mast/stem cell growth factor receptor Kit (Homo sapiens) (UniProt P10721); assay: Binding affinity to human KIT
# [10] = molecular target: T6, Serine/threonine-protein kinase 36 (Homo sapiens) (UniProt Q9NRP7); assay: Binding affinity to human fused kinase
# T6 sequence (whole entry): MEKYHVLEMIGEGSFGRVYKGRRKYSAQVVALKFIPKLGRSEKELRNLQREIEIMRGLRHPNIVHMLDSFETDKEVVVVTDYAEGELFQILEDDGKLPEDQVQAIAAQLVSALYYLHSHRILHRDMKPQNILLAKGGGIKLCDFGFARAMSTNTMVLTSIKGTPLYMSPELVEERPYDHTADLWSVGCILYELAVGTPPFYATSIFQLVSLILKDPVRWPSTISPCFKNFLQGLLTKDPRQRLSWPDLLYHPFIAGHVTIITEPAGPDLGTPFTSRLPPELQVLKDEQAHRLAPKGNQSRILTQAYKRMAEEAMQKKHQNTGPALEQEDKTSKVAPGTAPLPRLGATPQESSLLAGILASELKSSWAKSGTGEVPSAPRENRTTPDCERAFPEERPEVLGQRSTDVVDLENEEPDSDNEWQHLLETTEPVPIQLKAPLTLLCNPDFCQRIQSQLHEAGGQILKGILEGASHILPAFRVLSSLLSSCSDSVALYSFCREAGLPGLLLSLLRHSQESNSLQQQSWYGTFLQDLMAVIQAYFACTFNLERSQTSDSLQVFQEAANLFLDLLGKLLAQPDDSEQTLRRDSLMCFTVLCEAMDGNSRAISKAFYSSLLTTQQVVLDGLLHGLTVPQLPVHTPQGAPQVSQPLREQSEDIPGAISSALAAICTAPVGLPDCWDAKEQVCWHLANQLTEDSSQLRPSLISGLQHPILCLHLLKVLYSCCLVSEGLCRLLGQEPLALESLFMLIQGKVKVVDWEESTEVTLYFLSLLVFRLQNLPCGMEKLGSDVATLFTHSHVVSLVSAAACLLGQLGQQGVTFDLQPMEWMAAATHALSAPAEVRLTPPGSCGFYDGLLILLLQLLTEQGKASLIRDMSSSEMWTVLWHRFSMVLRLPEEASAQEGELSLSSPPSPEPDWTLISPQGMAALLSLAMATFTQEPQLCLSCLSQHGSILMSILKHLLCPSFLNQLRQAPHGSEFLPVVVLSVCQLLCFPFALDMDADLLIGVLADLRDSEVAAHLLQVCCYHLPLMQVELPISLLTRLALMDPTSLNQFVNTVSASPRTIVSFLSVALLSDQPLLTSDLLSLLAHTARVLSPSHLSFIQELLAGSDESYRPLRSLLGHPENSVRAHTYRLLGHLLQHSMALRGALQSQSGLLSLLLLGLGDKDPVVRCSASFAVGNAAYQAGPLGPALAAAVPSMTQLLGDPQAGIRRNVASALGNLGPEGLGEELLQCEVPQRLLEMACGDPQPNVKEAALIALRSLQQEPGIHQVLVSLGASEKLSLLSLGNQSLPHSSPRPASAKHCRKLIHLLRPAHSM
# [11] = tested on: HT-1080; assay: Induction of F-actin depolymerization in human HT1080 cells at 5 uM after 2 days by fluorescein-tagged phalloidin staining; type: functional, cell-based
# [12] = molecular target: T4, LIM domain kinase 2; assay: Inhibition of LIMK2-mediated cofilin Ser3 phosphorylation in human HT1080 cells; type: cell-based; conditions: HT-1080
# Target sequence in this assay (P53671 whole entry, looked up, the tested form may be a part): as the sequence (P53671 whole entry, the tested form may be a part) above
# [13] = tested on: Mast/stem cell growth factor receptor Kit (Homo sapiens), P10721 [V559D]; assay: Binding affinity to human KIT V559D mutant
# Chain of Mast/stem cell growth factor receptor Kit (Homo sapiens), P10721 [V559D] (P10721 whole entry V559D): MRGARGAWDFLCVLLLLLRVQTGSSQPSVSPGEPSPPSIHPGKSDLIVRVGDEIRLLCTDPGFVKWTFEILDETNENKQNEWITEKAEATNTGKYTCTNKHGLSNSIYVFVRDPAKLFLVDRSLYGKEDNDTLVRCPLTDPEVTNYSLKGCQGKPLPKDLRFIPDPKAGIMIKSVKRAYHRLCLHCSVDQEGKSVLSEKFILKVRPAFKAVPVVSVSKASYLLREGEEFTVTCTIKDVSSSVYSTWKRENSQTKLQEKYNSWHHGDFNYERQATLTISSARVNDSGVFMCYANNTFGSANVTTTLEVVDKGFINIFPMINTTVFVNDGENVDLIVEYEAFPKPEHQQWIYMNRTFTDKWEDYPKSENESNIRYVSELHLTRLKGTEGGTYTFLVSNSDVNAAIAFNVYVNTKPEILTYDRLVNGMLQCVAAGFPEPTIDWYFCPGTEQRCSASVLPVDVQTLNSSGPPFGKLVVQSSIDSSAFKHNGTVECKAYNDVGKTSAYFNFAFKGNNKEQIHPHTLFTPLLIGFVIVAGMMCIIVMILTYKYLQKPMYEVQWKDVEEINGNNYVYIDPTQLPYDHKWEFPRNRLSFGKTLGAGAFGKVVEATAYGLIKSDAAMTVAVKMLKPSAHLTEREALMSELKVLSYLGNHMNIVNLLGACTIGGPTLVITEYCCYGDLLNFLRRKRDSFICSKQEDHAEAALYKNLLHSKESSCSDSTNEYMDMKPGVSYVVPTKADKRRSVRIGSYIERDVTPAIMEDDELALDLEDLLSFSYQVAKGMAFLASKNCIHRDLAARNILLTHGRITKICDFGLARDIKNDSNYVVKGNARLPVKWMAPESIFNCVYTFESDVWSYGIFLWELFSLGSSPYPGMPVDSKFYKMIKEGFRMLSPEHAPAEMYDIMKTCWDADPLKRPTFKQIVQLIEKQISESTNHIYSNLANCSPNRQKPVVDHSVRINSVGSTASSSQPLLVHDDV
# [14] = molecular target: Angiopoietin-1 receptor (Homo sapiens) (UniProt Q02763); assay: Binding affinity to human TIE2
# [15] = molecular target: T1, Mitogen-activated protein kinase 14; assay: Binding affinity to human p38alpha
# [16] = molecular target: T7, Activin receptor type-1B (Homo sapiens) (UniProt P36896); assay: Binding affinity to human Alk4
# T7 sequence (whole entry): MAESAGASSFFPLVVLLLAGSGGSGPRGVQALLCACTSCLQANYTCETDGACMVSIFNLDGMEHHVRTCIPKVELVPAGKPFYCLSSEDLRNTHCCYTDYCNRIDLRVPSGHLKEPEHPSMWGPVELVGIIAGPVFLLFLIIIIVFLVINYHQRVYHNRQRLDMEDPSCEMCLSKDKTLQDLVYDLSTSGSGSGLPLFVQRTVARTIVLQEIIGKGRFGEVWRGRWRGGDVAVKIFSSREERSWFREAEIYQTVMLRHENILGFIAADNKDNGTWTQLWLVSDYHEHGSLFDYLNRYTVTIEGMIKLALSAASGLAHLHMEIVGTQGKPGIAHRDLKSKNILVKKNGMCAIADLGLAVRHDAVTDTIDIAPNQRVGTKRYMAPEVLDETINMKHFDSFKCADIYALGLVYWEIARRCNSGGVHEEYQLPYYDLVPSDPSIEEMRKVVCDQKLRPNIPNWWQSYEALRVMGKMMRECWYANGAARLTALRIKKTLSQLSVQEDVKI
# [17] = molecular target: Epithelial discoidin domain-containing receptor 1 (Homo sapiens) (UniProt Q08345); assay: Binding affinity to human DDR1
# [18] = molecular target: T2, LIM domain kinase 1; assay: Inhibition of LIMK1-mediated cofilin Ser3 phosphorylation in human HT1080 cells; type: cell-based; conditions: HT-1080
# [19] = molecular target: T4, LIM domain kinase 2; assay: Binding affinity to human LIMK2
# Target sequence in this assay (P53671 whole entry, looked up, the tested form may be a part): as the sequence (P53671 whole entry, the tested form may be a part) above
# T1 sequence (Q16539 whole entry, the tested form may be a part): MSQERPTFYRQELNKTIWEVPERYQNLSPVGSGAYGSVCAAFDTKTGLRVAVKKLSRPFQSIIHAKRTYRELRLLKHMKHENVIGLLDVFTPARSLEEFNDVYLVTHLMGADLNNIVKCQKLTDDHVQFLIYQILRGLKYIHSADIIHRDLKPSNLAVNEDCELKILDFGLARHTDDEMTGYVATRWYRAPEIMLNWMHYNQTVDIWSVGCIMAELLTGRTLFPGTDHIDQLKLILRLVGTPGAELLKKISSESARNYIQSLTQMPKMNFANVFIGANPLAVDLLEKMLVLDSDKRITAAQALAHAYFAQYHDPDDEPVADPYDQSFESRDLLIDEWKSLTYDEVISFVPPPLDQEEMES
IC50 [2] [nM],IC50 [3] [nM],IC50 [4] [nM],IC50 [5] [nM],Structure (SMILES),also measured
> 50000,–,–,–,CCOc1ccc(-c2cc(-c3cnc(NC(C)C)s3)nc(-c3ccccc3F)n2)c(Cl)c1,IC50 [1]: 590 nM
23,415,16,1130,CNC(=O)Nc1ncc(-c2cc(-c3c(C)cc(OC)cc3C)nc(-c3cnccn3)n2)s1,–
250,> 30000,810,> 30000,CCCNc1ncc(-c2cc(-c3c(Cl)cc(OC4CCCC4)cc3Cl)nc(-c3cnccn3)n2)s1,–
210,> 30000,50000,> 30000,CCCNc1ncc(-c2cc(-c3ccc(OC4CCCC4)cc3Cl)nc(-c3cnccn3)n2)s1,–
172,> 12500,245,> 12500,CCC(CC)Oc1cc(C)c(-c2cc(-c3cnc(NC(=O)C(C)C)s3)nc(-c3cnccn3)n2)c(C)c1,–
66,415,173,2200,CCC(CC)Oc1cc(C)c(-c2cc(-c3cnc(NC(=O)NC)s3)nc(-c3cnccn3)n2)c(C)c1,–
12500,> 30000,760,> 30000,CCCNc1ncc(-c2cc(-c3cc(OC)ccc3Cl)nc(-c3cnccn3)n2)s1,–
444,> 30000,1540,> 30000,CCCCCOc1ccc(-c2cc(-c3cnc(NCCC)s3)nc(-c3cnccn3)n2)c(Cl)c1,–
163,> 30000,1530,> 30000,CCCNc1ncc(-c2cc(-c3c(Cl)cc(OC(CC)CC)cc3Cl)nc(-c3cnccn3)n2)s1,–
38,–,16,> 30000,CCCNc1ncc(-c2cc(-c3c(Cl)cc(OC)cc3Cl)nc(-c3cnccn3)n2)s1,inhibition [6]: 72%
1040,> 30000,171,> 30000,CCCNc1ncc(-c2cc(-c3cc(OCCC)ccc3Cl)nc(-c3cnccn3)n2)s1,–
30,> 30000,8,> 30000,COc1cc(Cl)c(-c2cc(-c3cnc(NC(C)=O)s3)nc(-c3cnccn3)n2)c(Cl)c1,–
145,> 30000,28,> 30000,CCCNc1ncc(-c2cc(-c3cc(OCCC4CCCCC4)ccc3Cl)nc(-c3cnccn3)n2)s1,–
227,> 30000,382,> 30000,CCC(CC)Oc1cc(C)c(-c2cc(-c3cnc(NC(=O)OC)s3)nc(-c3cnccn3)n2)c(C)c1,–
485,–,–,–,CCOc1ccc(-c2cc(-c3cnc(NC(C)C)s3)nc(-c3ccccn3)n2)c(Cl)c1,IC50 [1]: 3940 nM
368,–,–,–,CCOc1ccc(-c2cc(-c3cnc(NC(C)C)s3)nc(-c3cnccn3)n2)c(Cl)c1,IC50 [1]: 2000 nM
7730,> 30000,> 12500,> 30000,CCCNc1ncc(-c2cc(-c3ccc(O)cc3Cl)nc(-c3cnccn3)n2)s1,–
359,> 30000,50000,> 30000,CCCNc1ncc(-c2cc(-c3ccc(OC(CC)CC)cc3Cl)nc(-c3cnccn3)n2)s1,–
58,252,38,455,CCNC(=O)Nc1ncc(-c2cc(-c3c(C)cc(OC)cc3C)nc(-c3cnccn3)n2)s1,Activity [7]: Active; IC50 [8]: > 50000 nM; Activity [9]: Active; Activity [10]: Active; Activity [11]: Active; inhibition [12]: Dose-dependent effect; Activity [13]: Active; Activity [14]: Active; Activity [15]: inactive; Activity [16]: Active; Activity [17]: Active; inhibition [18]: Dose-dependent effect; Activity [19]: Active
115,> 30000,141,> 30000,CCCNc1ncc(-c2cc(-c3c(Cl)cc(OCCC)cc3Cl)nc(-c3cnccn3)n2)s1,–
284,2740,202,11900,COC(=O)Nc1ncc(-c2cc(-c3c(C)cc(OC)cc3C)nc(-c3cnccn3)n2)s1,–
87,612,59,2260,COc1cc(C)c(-c2cc(-c3cnc(NC(C)=O)s3)nc(-c3cnccn3)n2)c(C)c1,–
1660,> 30000,1230,> 30000,CCCNc1ncc(-c2cc(-c3ccc(OC)cc3Cl)nc(-c3cnccn3)n2)s1,–
64,2010,311,> 30000,CCC(CC)Oc1cc(C)c(-c2cc(-c3cnc(NC(C)=O)s3)nc(-c3cnccn3)n2)c(C)c1,–
213,> 30000,1220,> 30000,CCCNc1ncc(-c2cc(-c3ccc(OC(CC)CC)cc3C)nc(-c3cnccn3)n2)s1,–
32,> 30000,12,> 30000,CNC(=O)Nc1ncc(-c2cc(-c3c(Cl)cc(OC)cc3Cl)nc(-c3cnccn3)n2)s1,–
